Data set [1] concerns murine bone marrow cells. To be noted: positive control, 20 mg/kg intraperitoneally, male mice.
Description: The Study purpose was to reveal and quantitatively assess the cytogenetic activity (mutagenicity) of the pharmacologic drugs in the mammalian bone marrow polychromatophils. The method's base is the micronuclei cells microscopic registration.
The experimental used the male and female F1(CBAx C57BI6/J) hybrid mice, two-month age, 18 to 20 grams body weight. Every group included 6 animals. The animals were kept under the 12-hour light regime, with freely available water and food. The single and five fold administration protein-polypeptide complex mutagenicity assessment animal experiments were in compliance with the official protocols. Three experimental series with relevant controls were performed: therapeutic dosage: males, single administration; subtoxic dosage: males, single administration; and therapeutic dosage: males and females, five fold administration. […]
(§1) The bone marrow cells preparations for the micronuclei account were made in conventional manner, in accordance with the "Micronuclear Test Environmental Factors Mutagenicity Assessment in Mammalian Organs Cells" Guidelines. […] 2000 polychromatophils per animal were then analyzed with coded preparations. At the 500 erythrocytes count the polychromatophil to normochromatic erythrocytes ratio was determined.
The test system of data set [2] is murine bone marrow cells. The conditions noted are these: positive control, 20 mg/kg intraperitoneally, male mice. This is another data set of the same source.
Description: The Study purpose is to reveal and quantitatively assess the cytogenetic activity (mutagenicity) of the pharmacologic drugs in the mammalian bone marrow polychromatophils. The method's base is the micronuclei cells microscopic registration.
The experimental used the male and female F1(CBAx C57BI6/J) hybrid mice, two-month age, 18 to 20 grams body weight. Every group included 6 animals. The animals were kept under the 12-hour light regime, with freely available water and feed. The single and five fold administration protein-polypeptide complex mutagenicity assessment animal experiments were in compliance with the official protocols. Three experimental series with relevant controls were performed: therapeutic dosage: males, single administration; subtoxic dosage: males, single administration; and therapeutic dosage: males and females, five fold administration. […]
as §1

For `O=P1(N(CCCl)CCCl)NCCCO1` (stereo not shown) [cyclophosphamide], in the data set with murine bone marrow cells [1], the “higher micronuclei cells vs. control” value was found to be 19.6 fold. The micronuclei cells with murine bone marrow cells [1] (control 3.16‰) is reported as 62.1 ‰. In addition, the “higher micronuclei cells count vs. control” value in the data set with murine bone marrow cells [2] was found to be 19.6 fold. Moreover, the micronuclei cells count in the data set with murine bone marrow cells [2] (control 3.16‰) is reported as 62.1 ‰.

Values taken from patent publication EP2656853A1, “METHOD FOR TREATING ACUTE CEREBRAL AND SPINAL BLOOD FLOW DISORDERS OF AN ISCHAEMIC OR HA[…]” (Zakrytoe Aktsionernoe Obschestvo "Pharm-Sintez", priority 2010, dated 2012).
